Activity calls are given as the source filed them. The calls are words filed in the database; no cut-off is given here.
Legend:
[1] = Growth inhibition of human HBL2 cells after 24 hrs by MTT assay; format: functional; details: HBL2, 24 h
[2] = Growth inhibition of human HBL2 cells after 48 hrs by MTT assay; format: functional; details: HBL2, 48 h
[3] = Growth inhibition of human Rec1 cells after 24 hrs by MTT assay; format: functional; details: Rec1, 24 h
[4] = Growth inhibition of human Rec1 cells after 48 hrs by MTT assay; format: functional; details: Rec1, 48 h
[5] = target: Tyrosine-protein kinase BTK (Homo sapiens) (UniProt Q06187); assay: Inhibition of BTK (unknown origin) assessed as enzyme residual activity at 10 uM by radiometric protein kinase assay
Tyrosine-protein kinase BTK (Homo sapiens), sequence (Q06187 whole entry): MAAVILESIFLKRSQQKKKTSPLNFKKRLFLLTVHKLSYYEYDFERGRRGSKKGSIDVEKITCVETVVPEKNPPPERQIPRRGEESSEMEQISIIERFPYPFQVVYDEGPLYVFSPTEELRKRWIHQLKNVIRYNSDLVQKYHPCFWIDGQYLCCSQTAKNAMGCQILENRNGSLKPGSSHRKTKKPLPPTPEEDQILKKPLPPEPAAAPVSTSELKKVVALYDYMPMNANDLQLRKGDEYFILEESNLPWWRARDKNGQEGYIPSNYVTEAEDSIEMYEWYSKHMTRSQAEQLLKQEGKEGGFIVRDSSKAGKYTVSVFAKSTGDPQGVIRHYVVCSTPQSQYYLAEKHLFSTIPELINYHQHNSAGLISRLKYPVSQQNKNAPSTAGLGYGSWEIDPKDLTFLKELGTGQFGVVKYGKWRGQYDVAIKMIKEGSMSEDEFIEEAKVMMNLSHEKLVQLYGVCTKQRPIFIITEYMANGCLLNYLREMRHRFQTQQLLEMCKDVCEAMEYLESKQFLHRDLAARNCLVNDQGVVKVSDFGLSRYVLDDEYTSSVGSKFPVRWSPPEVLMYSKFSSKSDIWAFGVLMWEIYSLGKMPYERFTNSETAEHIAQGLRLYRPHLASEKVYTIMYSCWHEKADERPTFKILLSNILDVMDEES

[6] = target: Tyrosine-protein kinase Lyn (Homo sapiens) (UniProt P07948); assay: Inhibition of Lyn (unknown origin) assessed as enzyme residual activity at 10 uM by radiometric protein kinase assay
Tyrosine-protein kinase Lyn (Homo sapiens), sequence (P07948 2-512 limits assumed): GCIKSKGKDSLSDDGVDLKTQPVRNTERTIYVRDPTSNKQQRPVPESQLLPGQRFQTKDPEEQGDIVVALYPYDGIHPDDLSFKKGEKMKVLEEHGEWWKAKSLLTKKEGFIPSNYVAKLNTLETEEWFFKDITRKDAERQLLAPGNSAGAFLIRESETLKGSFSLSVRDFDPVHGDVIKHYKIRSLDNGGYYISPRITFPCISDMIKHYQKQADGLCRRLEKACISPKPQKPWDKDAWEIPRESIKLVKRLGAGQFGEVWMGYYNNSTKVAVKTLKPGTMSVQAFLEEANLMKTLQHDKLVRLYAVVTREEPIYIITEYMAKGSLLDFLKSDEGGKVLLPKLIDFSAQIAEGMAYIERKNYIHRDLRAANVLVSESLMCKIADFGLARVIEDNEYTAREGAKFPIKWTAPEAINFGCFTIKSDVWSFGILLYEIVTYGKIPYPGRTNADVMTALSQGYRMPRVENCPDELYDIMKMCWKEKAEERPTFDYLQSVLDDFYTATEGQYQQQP

[7] = target: Tyrosine-protein kinase SYK (Homo sapiens) (UniProt P43405); assay: Inhibition of Syk (unknown origin) assessed as enzyme residual activity at 10 uM by radiometric protein kinase assay
[8] = target: Tyrosine-protein kinase Lyn (Homo sapiens) (UniProt P07948); assay: Inhibition of Lyn phosphorylation in human Rec1 cells at 2.5 uM incubated for 6 hrs by Western blotting method; format: cell-based
[9] = Inhibition of cell proliferation of human Rec1 cells at 5 uM after 24 hrs by MTT assay; format: functional; details: Rec1, 24 h
[10] = Solubility in water; format: physicochemical
[11] = Growth inhibition of bortezomib-resistant human JBR cells after 24 hrs by MTT assay; format: functional
[12] = Growth inhibition of bortezomib-resistant human JBR cells after 48 hrs by MTT assay; format: functional
PBMC = assay: Induction of apoptotic cell death in human PBMCs at 1 to 10 uM after 24 hrs by Annexin V and propidium iodide staining based flow cytometry
[13] = Growth inhibition of human UPN1 cells after 24 hrs by MTT assay; format: functional; details: UPN1, 24 h
[14] = Growth inhibition of human JeKo1 cells after 24 hrs by MTT assay; format: functional; details: JeKo-1, 24 h
[15] = Growth inhibition of human JVM2 cells after 24 hrs by MTT assay; format: functional; details: JVM-2, 24 h
[16] = Growth inhibition of human Maver1 cells after 24 hrs by MTT assay; format: functional; details: Maver1, 24 h
[17] = Growth inhibition of human Mino cells after 24 hrs by MTT assay; format: functional
[18] = Growth inhibition of human GRANTA-519 cells after 24 hrs by MTT assay; format: functional; details: Granta-519, 24 h
[19] = Growth inhibition of human Z138C cells after 24 hrs by MTT assay; format: functional
[20] = Growth inhibition of human MEC2 cells after 24 hrs by MTT assay; format: functional; details: MEC2, 24 h
[21] = Growth inhibition of human JVM13 cells after 24 hrs by MTT assay; format: functional; details: JVM13, 24 h
[22] = Growth inhibition of human MEC1 cells after 24 hrs by MTT assay; format: functional; details: MEC1, 24 h
[23] = Growth inhibition of human DOHH2 cells after 24 hrs by MTT assay; format: functional; details: DOHH-2, 24 h
WSU-NHL [24] = assay: Growth inhibition of human WSU-NHL cells after 24 hrs by MTT assay; format: functional
[25] = Growth inhibition of human WSU-FSCCL cells after 24 hrs by MTT assay; format: functional
[26] = Growth inhibition of human SC1 cells after 24 hrs by MTT assay; format: functional; details: SC-1, 24 h
[27] = Growth inhibition of human OCI-Ly8 cells after 24 hrs by MTT assay; format: functional; details: OCI-Ly8, 24 h
[28] = Growth inhibition of human SUDHL8 cells after 24 hrs by MTT assay; format: functional; details: SU-DHL-8, 24 h
[29] = Growth inhibition of human U2932 cells after 24 hrs by MTT assay; format: functional; details: U2932, 24 h
[30] = Growth inhibition of human SUDHL16 cells after 24 hrs by MTT assay; format: functional; details: SU-DHL-16, 24 h
[31] = Growth inhibition of human JeKo1 cells after 48 hrs by MTT assay; format: functional; details: JeKo-1, 48 h
[32] = Growth inhibition of human UPN1 cells after 48 hrs by MTT assay; format: functional; details: UPN1, 48 h
[33] = Growth inhibition of human JVM2 cells after 48 hrs by MTT assay; format: functional; details: JVM-2, 48 h
[34] = Growth inhibition of human Maver1 cells after 48 hrs by MTT assay; format: functional; details: Maver1, 48 h
[35] = Growth inhibition of human Mino cells after 48 hrs by MTT assay; format: functional
[36] = Growth inhibition of human GRANTA-519 cells after 48 hrs by MTT assay; format: functional; details: Granta-519, 48 h
[37] = Growth inhibition of human Z138C cells after 48 hrs by MTT assay; format: functional
[38] = Growth inhibition of human MEC2 cells after 48 hrs by MTT assay; format: functional; details: MEC2, 48 h
[39] = Growth inhibition of human JVM13 cells after 48 hrs by MTT assay; format: functional; details: JVM13, 48 h
[40] = Growth inhibition of human MEC1 cells after 48 hrs by MTT assay; format: functional; details: MEC1, 48 h
[41] = Growth inhibition of human DOHH2 cells after 48 hrs by MTT assay; format: functional; details: DOHH-2, 48 h
WSU-NHL [42] = assay: Growth inhibition of human WSU-NHL cells after 48 hrs by MTT assay; format: functional
[43] = Growth inhibition of human WSU-FSCCL cells after 48 hrs by MTT assay; format: functional
[44] = Growth inhibition of human SC1 cells after 48 hrs by MTT assay; format: functional; details: SC-1, 48 h
[45] = Growth inhibition of human OCI-Ly8 cells after 48 hrs by MTT assay; format: functional; details: OCI-Ly8, 48 h
[46] = Growth inhibition of human SUDHL8 cells after 48 hrs by MTT assay; format: functional; details: SU-DHL-8, 48 h
[47] = Growth inhibition of human U2932 cells after 48 hrs by MTT assay; format: functional; details: U2932, 48 h
[48] = Growth inhibition of human SUDHL16 cells after 48 hrs by MTT assay; format: functional; details: SU-DHL-16, 48 h
[49] = target: Tyrosine-protein kinase SYK (Homo sapiens) (UniProt P43405); assay: Inhibition of Syk phosphorylation in human Rec1 cells at 0.1 to 5 uM incubated for 6 hrs by Western blotting method; format: cell-based
[50] = target: Tyrosine-protein kinase Lyn (Homo sapiens) (UniProt P07948); assay: Inhibition of Lyn phosphorylation in human Rec1 cells at 0.1 to 5 uM incubated for 6 hrs by Western blotting method; format: cell-based
[51] = target: Tyrosine-protein kinase BTK (Homo sapiens) (UniProt Q06187); assay: Inhibition of BTK phosphorylation in human Rec1 cells at 1 uM incubated for 6 hrs by Western blotting method; format: cell-based
[52] = target: Tyrosine-protein kinase BTK (Homo sapiens) (UniProt Q06187); assay: Inhibition of BTK phosphorylation in human Rec1 cells at 5 uM incubated for 6 hrs by Western blotting method; format: cell-based

Nc1nc(N)c2c(n1)NC(=O)C(c1c(Cl)cccc1Cl)C2 (stereo not drawn) gave a GI50 [1] of over 100 µM, a GI50 [2] of over 100 µM and a GI50 [3] of over 100 µM. The GI50 [4] was over 100 µM.

For Cn1c(=O)c(-c2c(Cl)cccc2Cl)cc2c(N)nc(Nc3ccc(NCCN4CCOCC4)cc3)nc21, the Activity [5] was 10%, the Activity [6] was 0% and the Activity [7] was 31%.

In the case of Nc1nc(Nc2ccccc2)nc2c1CC(c1c(Cl)cccc1Cl)C(=O)N2 (stereo not drawn), the GI50 [1] is reported as 12 µM, the GI50 [2] is reported as 5.7 µM and the GI50 [3] is reported as over 100 µM. For the same compound, the GI50 [4] was 52.3 µM.

With COc1cc(Nc2ncc(F)c(Nc3ccc4c(n3)NC(=O)C(C)(C)O4)n2)cc(OC)c1OC [R-406] the inhibition [8] was “Active” and the inhibition at 5 µM [9] was 31%.

CN1CCN(c2ccc(Nc3nc(N)c4cc(-c5c(Cl)cccc5Cl)c(=O)n(C)c4n3)cc2)CC1.CS(=O)(=O)O showed a solubility [10] of 10000 µg/mL.

Compound Cn1c(=O)c(-c2c(Cl)cccc2Cl)cc2c(N)nc(Nc3ccccc3)nc21 has a GI50 [1] of 1.7 µM, a GI50 [2] of 0.4 µM and a GI50 [3] of 1.8 µM. It also gave a GI50 [4] of 0.7 µM, a GI50 [11] of 3.1 µM and a GI50 [12] of 0.9 µM. It also gave an Activity (PBMC) of 3% and a solubility [10] of under 1 µg/mL.

In the case of CN1C(=O)C(c2c(Cl)cccc2Cl)Cc2c(N)nc(Nc3ccccc3)nc21 (stereo not drawn), the GI50 [1] is reported as over 100 µM, the GI50 [2] is reported as 1.7 µM and the GI50 [3] is reported as 67.2 µM. For the same compound, the GI50 [4] was 1.3 µM.

In the case of CN1CCN(c2ccc(Nc3nc(N)c4cc(-c5c(Cl)cccc5Cl)c(=O)n(C)c4n3)cc2)CC1 [listing 1 of 2 here], the GI50 [1] is reported as 4.9 µM, the GI50 [2] is reported as 2.6 µM and the GI50 [3] is reported as 3.2 µM. The GI50 [4] was 3 µM, the inhibition at 5 µM [9] was 63% and the GI50 [13] was 3.6 µM. The GI50 [14] was 3.6 µM, the GI50 [15] was 3.6 µM and the GI50 [16] was 3.6 µM. It also gave a GI50 [17] of 3.6 µM, a GI50 [18] of 3.6 µM and a GI50 [19] of 3.6 µM. For the same compound, the GI50 [20] was 5.9 µM, the GI50 [21] was 5.9 µM and the GI50 [22] was 5.9 µM. For the same compound, the GI50 [23] was 3.7 µM, the GI50 (WSU-NHL [24]) was 3.7 µM and the GI50 [25] was 3.7 µM. For the same compound, the GI50 [26] was 3.7 µM, the GI50 [27] was 5.4 µM and the GI50 [28] was 5.4 µM. For the same compound, the GI50 [29] was 5.4 µM, the GI50 [30] was 5.4 µM and the GI50 [31] was 3 µM. For the same compound, the GI50 [32] was 3 µM, the GI50 [33] was 3 µM and the GI50 [34] was 3 µM. For the same compound, the GI50 [35] was 3 µM, the GI50 [36] was 3 µM and the GI50 [37] was 3 µM. The GI50 [38] was 4.9 µM, the GI50 [39] was 4.9 µM and the GI50 [40] was 4.9 µM. The GI50 [41] was 2.7 µM, the GI50 (WSU-NHL [42]) was 2.7 µM and the GI50 [43] was 2.7 µM. The GI50 [44] was 2.7 µM, the GI50 [45] was 5 µM and the GI50 [46] was 5 µM. It also gave a GI50 [47] of 5 µM and a GI50 [48] of 5 µM.

For C=CC(=O)N1CCC[C@@H](n2nc(-c3ccc(Oc4ccccc4)cc3)c3c(N)ncnc32)C1 [IBRUTINIB], the inhibition [8] was “Active” and the inhibition at 5 µM [9] was 3%.

Cn1c(=O)c(-c2c(Cl)cccc2Cl)cc2c(N)nc(Nc3ccc(OCCN4CCOCC4)cc3)nc21 showed an Activity [5] of 16%, an Activity [6] of 0% and an Activity [7] of 44%.

Nc1nc(Nc2ccccc2)nc2c1CC(c1c(Cl)cccc1Cl)CN2 (stereo not drawn) gave a GI50 [1] of 7.5 µM, a GI50 [2] of 2.4 µM and a GI50 [3] of 4 µM. For the same compound, the GI50 [4] was 1.3 µM.

Work on Nc1nc(Nc2ccccc2)nc2[nH]c(=O)c(-c3c(Cl)cccc3Cl)cc12 yielded a GI50 [1] of 8.8 µM, a GI50 [2] of over 100 µM and a GI50 [3] of 12.1 µM. For the same compound, the GI50 [4] was over 100 µM.

CN1CCN(c2ccc(Nc3nc(N)c4cc(-c5c(Cl)cccc5Cl)c(=O)n(C)c4n3)cc2)CC1 [listing 2 of 2 here] gave an Activity [5] of 3%, an Activity [6] of -1% and an Activity [7] of 9%. For the same compound, the inhibition [49] was “Dose-dependent effect”, the inhibition [50] was “Dose-dependent effect” and the inhibition [51] was 10%. The inhibition [52] was 40% and the inhibition [8] was “Active”.
